Results from US10329304B2, “Compounds and methods for inhibition of hedgehog signaling and phosphodiesterase” (Vanderbilt University, priority 2014, dated 2019).
“Also recorded” adds a separate entry of the source. Read-outs that look alike come from different tables or passages of the source.

Key:
[1] = system: IFT88 localization; assay: IFT88 immunostaining in NIH3T3 cells; type: cell-based; conditions: EGM 5 μM, ciliobrevin D 100 μM
From the text: To investigate whether the disruption of the cilium-to-nucleus trafficking of Gli2 by eggmanone was due to a general defect in the retrograde transport within the primary cilium, we compared the effect of the cytoplasmic dynein motor inhibitor ciliobrevin D with the effect of eggmanone on the intraflagellar transport protein 88 (IFT88) trafficking^19. […] Thus, the effects of eggmanone on Gli2 trafficking is specific, rather than an indirect consequence of a global defect in ciliary transport machinery.

[2] = system: TM3-Gli-Luc cells; assay: TM3-Gli-Luc cell viability (Cell Titer Glo, LD50); type: cell-based
Description: On the day of cell plating, 96-well plates were coated with 50 μL/well of sterile 0.1% gelatin for 5 minutes then aspirated and replaced with 50 μL/well of TM3 Culture Medium. TM3-Gli-Luc cells were seeded at a density of 5,000 cells/well in TM3 Culture Medium and incubated for 24 hours. A master mix of 20 nM SAG in TM3Luc Medium was prepared, and small molecule solutions were prepared by adding the desired amount of compound from 10 mM DMSO stock to TM3Luc Medium containing 20 nM SAG. Negative control was prepared by adding an equi-volume amount of DMSO as compared to small molecule treated conditions to TM3Luc Medium not containing SAG. Cell plating medium was aspirated and replaced with 100 μL/well of prepared small molecule-containing media, and plates were incubated for 48 hours before proceeding to luciferase activity and cell viability reading.
TM3Luc Medium from compound treated plates was aspirated and replaced with 82 μL/well of Glo Lysis Buffer (Promega, Madison, Wis., USA), and plates were shaken at 300 rpm and room temperature for 12 minutes. Lysate was split between two white 96-well plates, 45 μL/well and 25 μL/well for luciferase reading and cell viability respectively. For luciferase activity monitoring, 45 μL/well of Steady Glo (Promega, Madison, Wis., USA) was added to 45 μL/well of cell lysate, incubated at room temperature for 5 minutes, then luminescence was measured on a Turner Biosystems Modulus Microplate Reader (Sunnyvale, Calif., USA) with an integration time of 0.5 seconds. For cell viability measurement, 25 μL/well of Cell Titer Glo (Promega, Madison, Wis., USA) (prepared by 1:10 dilution with Glo Lysis Buffer) was added to 25 μL/well of cell lysate, incubated at room temperature for 5 minutes, then luminescence was measured as above.
All raw data was divided by the average of positive control cell titer data to arrive at percent cells remaining compared to positive control. […] At least two independent assays tested on separate days were averaged to provide LD50±standard error of the mean.

[3] = system: Gli1 transcription; assay: Sufu−/− mouse embryonic fibroblasts qRT-PCR; type: cell-based; conditions: Gli1 and Ptch1
From the text: In light of EGM1's ability to halt Hh transcriptional activity at a node downstream of the negative regulator Sufu, and thus also downstream of Smo, we sought to confirm mode of action retention with our most promising analogs. Therefore, we employed Sufu−/− mouse embryonic fibroblasts (MEF) that display constitutively active transcription of Hh target genes Gli1 and Ptch1 and monitored the ability of our optimized analogs to repress signaling via quantitative reverse transcription-PCR (qRT-PCR). […] We then evaluated improved analogs from multiple structural classes including those from Table 1 with cyclohexylthiophene cores as well as from Table 13 with structurally distinct core modifications.
Sufu^−/− cells were seeded into 12-well plates at a density of 100,000 cells/well in D10 FBS and incubated for 24 hours. Small molecule solutions were prepared by adding the desired amount of compound from 10 mM DMSO stock to D0.5 FBS. Negative control was prepared by adding an equi-volume amount of DMSO to D0.5 FBS as compared to small molecule treated conditions. Cell plating medium was aspirated and replaced with 1 mL of prepared small molecule-containing media, and plates were incubated for 24 hours before proceeding to RNA isolation.
Cells were washed 1× with 1× phosphate-buffered saline (PBS) then RNA was isolated using the Qiagen RNeasy Mini Kit (Qiagen, Germantown, Md., USA) according to the manufacturer's protocol, eluting RNA from the spin column with 30 μL of RNase-free water. RNA was placed on ice and immediately subjected to reverse transcription. Remaining RNA was stored at −80° C.
Reverse transcription polymerase chain reaction (RT-PCR) was performed with the Applied Biosystems High Capacity cDNA Reverse Transcription Kit (ThermoFisher Scientific, Waltham, Mass., USA) using an Eppendorf MasterCycler. Each 20 μL reaction contained 0.5 μg of total RNA, 2 μL of 10×RT Buffer, 0.8 μL of 25×dNTP Mix (100 mM), 2 μL of 10×RT Random Primers, 1 μL of MultiScribe® Reverse Transcriptase (50 U/μL), 1 μL of Recombinant RNasin® Ribonuclease Inhibitor (40 U/μL) (Promega, Madison, Wis., USA), and nuclease-free water. Reverse transcription was performed with the following program: 25° C. for 10 minutes, 37° C. for 120 minutes, and 85° C. for 5 minutes. The cDNA was subjected to quantitative real-time PCR (Q-PCR) or stored at −20° C.
Quantitative real-time PCR was performed on an Applied Biosystems 7900 HT Fast Real Time PCR System in 384-well format. Each cDNA sample was assayed in triplicate with both probe of interest and control probe. Master mixes for each probe were prepared corresponding to 10 μL of Applied Biosystems TaqMan Universal PCR Master Mix (ThermoFisher Scientific, Waltham, Mass., USA), 1 μL of primer, and nuclease-free water corresponding to a volume providing 20 μL reactions when loading an average of 50 ng of cDNA. Quantitative real-time PCR was run with the following thermal cycling protocol: 50° C. for 2 min., 95° C. for 10 min., and 40 cycles of 95° C. for 15 seconds, 60° C. for 1 min., then fluorescence reading. The following FAM probes were purchased from Life Technologies (Carlsbad, Calif., USA): mouse GAPDH, Mm99999915_g1; mouse Gli1, Mm00494646_g1; mouse Ptch1, Mm01306905_m1.
Quantitative real-time PCR data for Hh signaling inhibition was quantitated using the ΔΔCt method. Control probe values were subtracted from probe of interest values to arrive at the ΔCt value. The ΔCt value was transformed by 2-^ΔCt to arrive at the ΔΔCt value. All ΔΔCt values were divided by the average negative control ΔΔCt value to provide percent Hh signaling activity. Percent inhibition values were derived by calculating the inverse of percent activity. Data is reported as mean±standard error of the mean (SEM), representing at least two biological replicates, each quantitated in triplicate.

[4] = Lipophilic efficiency (LipE = pEC50 − cLogP) and cLogP
Description: Therefore, we prioritized phenotypic analog evaluation in the Gli-responsive luciferase reporter line TM3-Gli-Luc stimulated with 20 nM Smo agonist (SAG) while concurrently monitoring non-specific cellular toxicity. Additionally, lipophilic efficiency (LipE), a concurrent readout of a compound's potency (pEC50) and lipophilicity (cLogP) derived by subtracting the latter from the former, was utilized to optimize solubility properties (Table 12B), allowing for straightforward tracking of compounds with improvements in both parameters.

[5] = system: Hedgehog signaling (TM3-Gli-Luc); assay: TM3-Gli-Luc luciferase reporter assay stimulated with 20 nM SAG; type: cell-based; conditions: for EC50: read-out: TM3-Gli-Luc EC50
In short: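 Luciferase read-out divided by CellTiter-Glo viability, minus DMSO/no-SAG baseline, expressed relative to 20 nM SAG alone. Cells exposed to compound with SAG for 48 h at 37 °C in 2.5% FBS DMEM/F12 on gelatin. EC50 ±SEM from at least two separate-day runs.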

[6] = molecular target: consensus PDE4D sequence (Homo sapiens, UniProt Q08499); assay: PDE4D inhibition (consensus PDE4D sequence); type: biochemical
consensus PDE4D sequence, sequence (Q08499 whole entry): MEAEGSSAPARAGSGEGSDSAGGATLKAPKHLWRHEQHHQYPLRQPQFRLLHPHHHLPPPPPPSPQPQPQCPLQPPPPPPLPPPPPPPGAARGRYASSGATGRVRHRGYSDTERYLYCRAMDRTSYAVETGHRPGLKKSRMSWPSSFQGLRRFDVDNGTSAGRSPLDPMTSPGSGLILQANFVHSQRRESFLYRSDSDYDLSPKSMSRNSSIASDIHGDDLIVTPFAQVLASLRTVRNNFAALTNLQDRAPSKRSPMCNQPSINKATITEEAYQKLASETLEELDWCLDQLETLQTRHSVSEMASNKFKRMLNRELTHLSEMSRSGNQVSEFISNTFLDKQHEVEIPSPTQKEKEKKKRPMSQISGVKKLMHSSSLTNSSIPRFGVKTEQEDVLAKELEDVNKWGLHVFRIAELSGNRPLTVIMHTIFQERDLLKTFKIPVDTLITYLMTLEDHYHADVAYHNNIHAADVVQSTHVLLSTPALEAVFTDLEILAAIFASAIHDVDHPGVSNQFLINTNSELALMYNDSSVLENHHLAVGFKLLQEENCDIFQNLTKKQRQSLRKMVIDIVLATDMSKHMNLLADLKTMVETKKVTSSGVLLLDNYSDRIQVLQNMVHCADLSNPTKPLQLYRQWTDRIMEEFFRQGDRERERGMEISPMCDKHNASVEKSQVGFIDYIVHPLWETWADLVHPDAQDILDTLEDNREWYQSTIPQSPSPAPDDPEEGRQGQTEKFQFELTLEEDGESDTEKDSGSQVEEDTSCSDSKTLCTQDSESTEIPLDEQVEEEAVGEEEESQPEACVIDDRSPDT
From the text: First, the contribution of PDE4 was revisited as a potential explanation for the observed mechanistic drift.

[7] = molecular target: T1, Smo cyclopamine (Cyc) binding site (Homo sapiens, UniProt Q99835); assay: BODIPY-cyclopamine competition in HEK-293T cells overexpressing Smo; conditions: KAAD-Cyc 200 nM; analogs at 10- to 20-fold their EC50s
T1 construct: expressed in transfected cells; host or cells: HEK-293T
T1 sequence (Q99835 28-787): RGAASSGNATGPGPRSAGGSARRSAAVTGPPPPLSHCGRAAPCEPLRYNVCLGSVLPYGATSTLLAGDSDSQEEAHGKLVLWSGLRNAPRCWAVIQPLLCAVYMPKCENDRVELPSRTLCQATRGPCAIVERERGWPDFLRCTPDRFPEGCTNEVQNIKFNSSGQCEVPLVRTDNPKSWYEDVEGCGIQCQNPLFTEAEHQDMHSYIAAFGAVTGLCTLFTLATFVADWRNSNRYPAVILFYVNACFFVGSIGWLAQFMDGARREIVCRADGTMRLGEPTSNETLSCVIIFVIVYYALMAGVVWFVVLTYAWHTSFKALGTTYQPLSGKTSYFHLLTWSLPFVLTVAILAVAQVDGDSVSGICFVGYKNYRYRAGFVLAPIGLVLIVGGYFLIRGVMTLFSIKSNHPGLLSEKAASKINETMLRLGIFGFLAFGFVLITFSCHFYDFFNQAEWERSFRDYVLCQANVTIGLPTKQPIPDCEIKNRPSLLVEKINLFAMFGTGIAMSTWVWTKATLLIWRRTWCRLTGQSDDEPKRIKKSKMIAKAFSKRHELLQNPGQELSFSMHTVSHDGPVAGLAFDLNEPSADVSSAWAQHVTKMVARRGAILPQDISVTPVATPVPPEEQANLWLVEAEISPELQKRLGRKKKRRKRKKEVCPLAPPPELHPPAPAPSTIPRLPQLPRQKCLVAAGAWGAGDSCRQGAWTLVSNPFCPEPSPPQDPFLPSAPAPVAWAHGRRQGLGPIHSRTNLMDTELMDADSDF
Description: Thus, HEK-293T cells overexpressing Smo were concurrently treated with 5 nM BODIPY-Cyc and molecules of interest.

[8] = molecular target: PDE4D (Homo sapiens, UniProt Q08499); assay: PDE4 inhibition assay (PDE4D IC50); type: biochemical; conditions: mean ± SEM, normalized to DMSO; read-out: PDE4D IC50
PDE4D, sequence (Q08499 whole entry): as the sequence (Q08499 whole entry) above
Description: In vitro PDE profiling and dose-response assays were performed by BPS Biosciences (San Diego, Calif.). Kinetic Mechanism of inhibition studies were conducted by Millipore (St. Louis, Mo.). In brief, the PDE assay measures fluorescent polarization of FAM-AMP as FAM-cAMP is converted to FAM-AMP by PDE), the binding agent.
A series of dilutions of the test compound were prepared with 10% DMSO in assay buffer and 5 μl of the dilution was added to a 50 μl reaction so that the final concentration of DMSO is 1% in all of reactions. All of the PDE enzymatic reactions were conducted in duplicate at room temperature for 60 minutes in a 50 μl mixture containing PDE assay buffer (10 mM Tris-HCl, pH7.4, 10 mM MaCl2, 0.05% Tween 20), 100 nM FAM-cAMP, a PDE enzyme and a test compound.
After the enzymatic reaction, 100 μl of a binding solution (1:100 dilution of the binding agent, which contains the nano beads that recognize FAM-AMP, with the binding agent diluent) was added to each reaction and the reaction was performed at room temperature for 60 minutes. Fluorescence intensity was measured at an excitation of 485 nm and an emission of 528 nm using a Tecan Infinite M1000 microplate reader. Assays done by Millipore were conducted similarly with changes noted below:
Hedgehog signaling inhibition and PDE4 inhibition of various compounds disclosed herein was assayed as described herein above.

[9] = TM3-Gli-Luc reporter line stimulated with 20 nM SAG, mean ± SEM, Table 14

**Q.** What does the source list for N#CC(=C(O)c1ccc(Cl)cc1Cl)c1nc2cc(Cl)ccc2c(=O)[nH]1 [Ciliobrevin D, reference compound]?
**A.** IFT88 localization in the cilium [1]: perturbed the localization of IFT88 in the cilium; IFT88 localization in the cilium ([1]; listed as ciliobrevin D): severely disrupted the IFT88 localization in the cilium

**Q.** Which LD50 [2] does the source give for C=C(C)Cn1c(SCC(=O)N2CCCCC2C)nc2sc3c(c2c1=O)CCCC3 (centres unmarked) [Formula 9m] here?
**A.** 16.7 µM

**Q.** And the “TM3-Gli-Luc LD50” value ([2]; mean ± standard error of the mean)?
**A.** 16.7 ± 0.25 µM

**Q.** What about the “Transcriptional inhibition in the Sufu−/− cell line, in words” value (“Transcriptional inhibition” for short) [3] of the same compound?
**A.** general ability to inhibit transcriptional activity

**Q.** And the LipE ([4]; Calculated as pEC50 - cLogP, Molinspiration Cheminformatics)?
**A.** 0.94

**Q.** And the LipE ([4]; pEC50 - cLogP, Table 14)?
**A.** 0.94

**Q.** And the “reduction in potency versus EGM1” value [5]?
**A.** ~2 fold

**Q.** And the EC50 ([5]; 20 nM SAG, mean ± standard error of the mean)?
**A.** 2320 ± 730 nM

**Q.** What about the EC50 [5, 9] of the same compound?
**A.** 2320 ± 730 nM

**Q.** With O=C(CSc1nc2sccc2c(=O)n1C1CC1)c1ccccc1 [Formula 19c] as the compound, how does the “PDE4D inhibition in words” value [6] read?
**A.** only modest ICs against PDE4D

**Q.** And the Non-specific cellular toxicity [2]?
**A.** no non-specific cellular toxicity

**Q.** What about the “Transcriptional inhibition” value [3] of the same compound?
**A.** lack of Sufu−/− transcriptional inhibition

**Q.** What about the LipE ([4]; calculated as pEC50 - cLogP (Molinspiration Cheminformatics), Table 13) of the same compound?
**A.** 3.84

**Q.** What about the LipE ([4]; pEC50 - cLogP, Table 14) of the same compound?
**A.** 3.84

**Q.** And the EC50 ([5]; TM3-Gli-Luc reporter line stimulated with 20 nM SAG, mean ± SEM, Table 13)?
**A.** 82 ± 10 nM

**Q.** And the EC50 [5, 9]?
**A.** 82 ± 10 nM

**Q.** And the “Displacement of BODIPY-cyclopamine (5 nM) from Smo” value [7]?
**A.** do not displace the binding of BODIPY-cyclopamine; also recorded: failed to compete for the Smo binding site

**Q.** Which IC50 [8] does the source give for O=c1c2ccsc2nc(SCC(O)c2ccccc2)n1C1CC1 (centres unmarked) [Formula 20a] here?
**A.** 6070 ± 1500 nM

**Q.** And the “PDE4D inhibition in words” value [6]?
**A.** only modest ICs against PDE4D

**Q.** What about the “Transcriptional inhibition” value [3] of the same compound?
**A.** lack of Sufu−/− transcriptional inhibition

**Q.** What about the LipE ([4]; pEC50 - cLogP, Table 14) of the same compound?
**A.** 3.41

**Q.** And the “Displacement of BODIPY-cyclopamine (5 nM) from Smo” value [7]?
**A.** do not displace the binding of BODIPY-cyclopamine; also recorded: failed to compete for the Smo binding site
